In ChEMBL document CHEMBL5325400 (Eur J Med Chem, 2023):
Active and inactive are the calls of the source. The calls are words filed in the database; no cut-off is given here.

Key:
B16-F10 [1] = experiment: Antiproliferative activity against mouse B16-F10 cells assessed as inhibition of cell growth measured after 48 hrs by MTT assay; format: functional, cell-based; details: B16-F10, 48 h
A549 [2] = experiment: Antiproliferative activity against human A549 cells assessed as inhibition of cell growth measured after 48 hrs by MTT assay; format: functional, cell-based; details: A549, 48 h
A2780/Taxol = experiment: Antiproliferative activity against paclitaxel resistant human A2780/Taxol cells assessed as inhibition of cell growth incubated for 48 hrs by MTT assay; format: functional, cell-based
A549 [3] = experiment: Antiproliferative activity against human A549 cells expressing lentivirus RNAi VTI-96659 assessed as inhibition of cell growth measured after 48 hrs by MTT assay; format: functional, cell-based
Tubulin (Homo sapiens) = Tubulin (Homo sapiens) (UniProt P68371+Q9H4B7+P0DPH7+P68366+Q13509+Q71U36+P04350+Q3ZCM7+P07437+P68363+Q9BQE3+Q6PEY2+Q13885+Q9BVA1+Q9BUF5); experiment: Inhibition of tubulin polymerization in human A549 cells assessed as microtubule network polymerization at 100 nM measured after 18 hrs by Alexa Fluor 488 and DAPI staining based confocal microscopic analysis; format: cell-based
A549 [4] = experiment: Induction of cell cycle arrest in human A549 cells assessed as accumulation at G2 phase at 20 nM incubated for 24 hrs by PI staining based flow cytometry (Rvb= 12.49%); format: functional
A549 [5] = experiment: Induction of cell cycle arrest in human A549 cells assessed as accumulation at S phase at 10 nM incubated for 24 hrs by PI staining based flow cytometry (Rvb= 20.94%); format: functional
A549 [6] = experiment: Induction of cell cycle arrest in human A549 cells assessed as accumulation at S phase at 20 nM incubated for 24 hrs by PI staining based flow cytometry (Rvb= 20.94%); format: functional
A549 [7] = experiment: Induction of apoptosis in human A549 cells assessed as viable cells at 10 nM incubated for 24 hrs by annexin V-FITC/propidium iodide staining based flow cytometry analysis (reference value: 96.44%); format: functional; details: read-out: Activity
A549 [8] = experiment: Induction of apoptosis in human A549 cells assessed as viable cells at 40 nM incubated for 24 hrs by annexin V-FITC/propidium iodide staining based flow cytometry analysis (reference value: 96.44%); format: functional; details: read-out: Activity
A549 [9] = experiment: Induction of apoptosis in human A549 cells assessed as early apoptotic cells at 10 nM incubated for 24 hrs by annexin V-FITC/propidium iodide staining based flow cytometry analysis (reference value: 0.84%); format: functional
A549 [10] = experiment: Induction of apoptosis in human A549 cells assessed as early apoptotic cells at 40 nM incubated for 24 hrs by annexin V-FITC/propidium iodide staining based flow cytometry analysis (reference value: 0.84%); format: functional
A549 [11] = experiment: Induction of apoptosis in human A549 cells assessed as late apoptotic cells at 40 nM incubated for 24 hrs by annexin V-FITC/propidium iodide staining based flow cytometry analysis (reference value: 0.37%); format: functional
A549 [12] = experiment: Induction of apoptosis in human A549 cells assessed as necrotic cells at 10 nM incubated for 24 hrs by annexin V-FITC/propidium iodide staining based flow cytometry analysis (reference value: 2.36%); format: functional
A549 [13] = experiment: Induction of apoptosis in human A549 cells assessed as necrotic cells at 20 nM incubated for 24 hrs by annexin V-FITC/propidium iodide staining based flow cytometry analysis (reference value: 2.36%); format: functional
A549 [14] = experiment: Induction of apoptosis in human A549 cells assessed as necrotic cells at 40 nM incubated for 24 hrs by annexin V-FITC/propidium iodide staining based flow cytometry analysis (reference value: 2.36%); format: functional
A549 [15] = experiment: Antimigratory activity against human A549 cells assessed as inhibition of cell migration at 20 nM and incubated for 12 hrs by scratch wound healing assay (reference value: 29.5 +/- 1.34%); format: functional; design: scale not given: the % may be the effect or the level left
B16-F10 [16] = experiment: Antimigratory activity against mouse B16-F10 cells assessed as inhibition of cell migration at 10 nM and incubated for 12 hrs by scratch wound healing assay (reference value: 81.9 +/- 0.64%); format: functional; design: scale not given: the % may be the effect or the level left
A549 [17] = experiment: Inhibition of cell migration in human A549 cells assessed as total number of cells migrated at 10 nM incubated for 12 hrs by crystal violet staining based transwell assay (reference value: 724 +/- 16); format: functional
B16-F10 [18] = experiment: Inhibition of cell migration in mouse B16-F10 cells assessed as total number of cells migrated at 40 nM incubated for 12 hrs by crystal violet staining based transwell assay (reference value: 692 +/- 11); format: functional
[19] = AUC(0 to t) in Sprague-Dawley rat at 1 mg/kg, iv by LC-MS analysis; format: ADME, organism-based; design: dose 1 mg/kg, route iv; details: in vivo
[20] = AUC(0 to infinity) in Sprague-Dawley rat at 1 mg/kg, iv by LC-MS analysis; format: ADME, organism-based; design: dose 1 mg/kg, route iv; details: in vivo
[21] = Clearance in Sprague-Dawley rat at 1 mg/kg, iv by LC-MS analysis; format: ADME, organism-based; details: in vivo
[22] = Toxicity in BALB/c mouse assessed as drug tolerability at 10 mg/kg, ip; format: organism-based; details: in vivo
A549 [23] = experiment: Antitumor activity against human A549 cells xenografted in BALB/c mouse assessed as tumor growth inhibition at 5 mg/kg, ip administered every other day for 25 days; format: functional; details: A549, 600 h, time 25 day, read-out: TGI
A549 [24] = experiment: Antitumor activity against human A549 cells xenografted in BALB/c mouse assessed as tumor volume at 10 mg/kg, ip administered every other day for 25 days; format: functional; details: time 25 day
[25] = Toxicity in BALB/c mouse xenografted with human A549 cells assessed as change in body weight at 10 mg/kg, ip administered every other day for 25 days; format: organism-based; details: in vivo, 600 h, time 25 day
[26] = Toxicity in BALB/c mouse xenografted with human A549 cells assessed as change in body weight at 5 mg/kg, ip administered every other day for 25 days; format: organism-based; details: in vivo, 600 h, time 25 day
A549 [27] = experiment: Antitumor activity against human A549 cells xenografted in ip dosed BALB/c mouse assessed as decrease in Ki-67 expression in tumor administered every other day for 25 days by immunohistochemistry analysis; format: functional, organism-based; details: dose 10.0 mg/kg, time 25.0 day
A549 [28] = experiment: Antitumor activity against human A549 cells xenografted in BALB/c mouse assessed as downregulation of Bcl-2 expression in tumor at 10 mg/kg, ip administered every other day for 25 days by Western blotting analysis; format: functional, organism-based; details: time 25.0 day
A549 [29] = experiment: Antitumor activity against human A549 cells xenografted in BALB/c mouse assessed as downregulation of Bcl-2 expression in tumor at 5 mg/kg, ip administered every other day for 25 days by Western blotting analysis; format: functional, organism-based; details: time 25.0 day
[30] = Toxicity in BALB/c nude mouse xenografted with human A549 cells assessed as pathological changes in heart at 5 to 10 mg/kg, ip administered every other day for 25 days by hematoxylin and eosin staining based microscopic analysis; format: organism-based; details: in vivo, 600 h, dose 5-10 mg/kg, time 25 day
A549 [31] = experiment: Residual cell migration in human A549 cells at 5 nM incubated for 12 hrs by crystal violet staining based transwell assay; details: A549, 12 h
A549 [32] = experiment: Residual cell migration in human A549 cells at 40 nM incubated for 12 hrs by crystal violet staining based transwell assay; details: A549, 12 h

IC50 (B16-F10 [1]): 3.3 nM | IC50 (A549 [2]): 1.1 nM | IC50 (A2780/Taxol): 132 nM | inhibition (Tubulin (Homo sapiens)): Active | AUC(0-t) [19]: 239 ng·h/mL | AUC [20]: 239.43 ng·h/mL | clearance [21]: 69.8 mL/min/kg
SMILES: COc1cccc(Nc2cc(Nc3cccc(NC(=O)C4CC4)c3)ncn2)c1
Activity (A549 [3]): Active | Activity (A549 [4]): 33.13% | Activity (A549 [5]): 15.3% | Activity (A549 [6]): 15.49% | viability at 0.01 µM (A549 [7]): 82.2% | viability at 0.04 µM (A549 [8]): 63.6% | Activity (A549 [9]): 1.5% | Activity (A549 [10]): 3.86% | Activity (A549 [11]): 26.72% | Activity (A549 [12]): 6.5% | Activity (A549 [13]): 6% | Activity (A549 [14]): 5.78% | Activity (A549 [15]): 9.8% | Activity (B16-F10 [16]): 49.9% | Activity (A549 [17]): 486 | Activity (B16-F10 [18]): 221 | Activity [22]: Non-Toxic | inhibition in vivo at 5 mg/kg (A549 [23]): 39.1% | Activity (A549 [24]): 63.77% | Activity [25]: Non-Toxic | Activity [26]: Non-Toxic | Activity (A549 [27]): Dose-Dependent Effect | Activity (A549 [28]): Active | Activity (A549 [29]): Active | Activity [30]: Non-Toxic | level, % of control at 0.005 µM (A549 [31]): 91.5% | level, % of control at 0.04 µM (A549 [32]): 32.9%
